Read-outs that look alike come from different tables or passages of the source. Values belong to the molecule of their own block, whether it stands above or below them.
Tests used:
human sirtuin-1 (Sirt1) = biological target: T1, human sirtuin-1 (Sirt1) (Homo sapiens, UniProt Q96EB6); assay: SIRT1 Fluorimetric Drug Discovery Kit, Sirt1 activation; assay type: biochemical; conditions: for Fold increase in sirt1 activity versus control: Example 1(a), 10 µM, trans-resveratrol as control (1.0); for remaining activity at 0.3 µM / remaining activity at 1 µM / remaining activity at 3 µM / remaining activity at 10 µM / remaining activity at 30 µM: read-out: Activity [% control]
T1 construct: purchased BioMol, Hamburg, Germany
T1 sequence (Q96EB6 1-747): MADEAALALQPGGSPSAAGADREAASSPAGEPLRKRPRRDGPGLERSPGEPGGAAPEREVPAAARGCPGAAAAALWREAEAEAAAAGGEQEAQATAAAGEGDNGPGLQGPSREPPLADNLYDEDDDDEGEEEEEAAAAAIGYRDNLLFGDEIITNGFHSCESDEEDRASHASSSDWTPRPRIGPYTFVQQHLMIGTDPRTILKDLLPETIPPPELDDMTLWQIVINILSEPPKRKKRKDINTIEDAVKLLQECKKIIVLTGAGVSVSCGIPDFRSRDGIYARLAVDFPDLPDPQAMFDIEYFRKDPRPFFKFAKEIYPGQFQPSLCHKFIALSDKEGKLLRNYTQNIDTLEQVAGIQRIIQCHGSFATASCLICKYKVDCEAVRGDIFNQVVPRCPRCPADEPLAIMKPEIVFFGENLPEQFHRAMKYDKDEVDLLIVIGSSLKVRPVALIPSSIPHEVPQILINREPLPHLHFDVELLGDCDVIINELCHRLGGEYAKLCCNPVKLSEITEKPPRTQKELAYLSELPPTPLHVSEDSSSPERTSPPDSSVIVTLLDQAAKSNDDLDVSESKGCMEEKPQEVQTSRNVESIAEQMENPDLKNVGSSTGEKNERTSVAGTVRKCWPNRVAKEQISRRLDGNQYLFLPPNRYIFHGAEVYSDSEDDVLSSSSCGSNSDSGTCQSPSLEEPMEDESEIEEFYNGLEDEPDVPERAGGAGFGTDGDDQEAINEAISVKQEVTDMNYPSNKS
Protocol: Compounds were tested for Sirt1 activation using the SIRT1 Fluorimetric Drug Discovery Kit (BioMol, Hamburg, Germany), Testing was carried out in duplicate following the manufacturer's instructions. Assay medium: 50mM Tris-HCl pH 8.0, 137 mM NaCl, 2.7 mM KCI, 1 mM MgCl2, 1 mg/ml bovine serum albumin (BSA). Stock solutions of the test compounds (10 mM in DMSO) were used, yielding a final concentration of 10 µM in the assay plate. Readout was obtained by measuring the fluorescence in a microtiter plate reader (excitation: 380 nm; detection: 440 nm).
The agonistic effect on Sirt1 was determined at different concentrations. For this purpose, the test compound stock solutions were diluted to yield concentrations of 0.3, 1, 3, 10 and 30 µM, respectively, in the assay, which was performed as described above. The compound of structure (I-1) was selected for this experiment.
The selectivity of the agonistic effect of the compound of formula (I-1) on different sirtuin isoforms was investigated. For this purpose, in vitro testing was performed as described in Example 1 using the respective SIRT1 Fluorimetric Drug Discovery Kit, SIRT2 Fluorimetric Drug Discovery Kit, and SIRT3 Fluorimetric Drug Discovery Kit (each from BioMol, Hamburg, Germany). […] The dose-response effect is slightly lesser on Sirt3. Table 3: Activity on Sirt1

Sirt2 = biological target: T2, Sirt2 (Homo sapiens, UniProt Q8IXJ6); assay: SIRT2 Fluorimetric Drug Discovery Kit, Sirt2 activation; assay type: biochemical; conditions: Example 2, Table 6, Sirt2
T2 construct: purchased BioMol, Hamburg, Germany
T2 sequence (Q8IXJ6 1-389): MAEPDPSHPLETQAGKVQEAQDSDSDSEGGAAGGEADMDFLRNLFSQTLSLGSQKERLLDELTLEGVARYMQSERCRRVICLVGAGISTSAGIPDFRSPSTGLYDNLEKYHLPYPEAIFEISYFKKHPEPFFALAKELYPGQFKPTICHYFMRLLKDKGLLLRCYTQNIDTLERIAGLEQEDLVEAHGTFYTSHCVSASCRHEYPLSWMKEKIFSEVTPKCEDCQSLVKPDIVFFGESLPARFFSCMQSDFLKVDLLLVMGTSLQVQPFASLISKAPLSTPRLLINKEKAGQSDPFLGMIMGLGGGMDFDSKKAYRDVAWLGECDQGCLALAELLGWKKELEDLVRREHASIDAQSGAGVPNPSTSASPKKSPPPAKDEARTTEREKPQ

[1] = system: 5'-AMP-activated protein kinase (AMPK); assay: Western blot analysis of AMPK phosphorylation in NHEK; assay type: cell-based, human; conditions: for AMPK phosphorylation [% Control] / P-AMPK / Ratio P-AMPK/ GAPDH: 48 h;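 on P-AMPK: Chemiluminescence band density of P-AMPK measured with Multigauge software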
[2] = system: normal human epidermal keratinocytes (NHEK); assay: MTT reduction assay, cytotoxicity in NHEK; assay type: cell-based; conditions: for viability: NHEK, MTT
Protocol: Culture conditions: 37 °C, 5 % CO2. Culture medium: Keratinocyte-SFM (serum-free medium) containing human recombinant epidermal growth factor (EGF 1-53) 0.25 ng/mL and bovine pituitary extract 25 µg/mL (Gibco; Cat. No. 17005-075), supplemented with gentamycin 25 µg/mL. Assay medium: Keratinocyte-SFM (Gibco; Cat. No. 10744-019), supplemented with gentamycin 25 µg/mL.
NHEK were seeded in 24-well plates (30.000 cells / well) and cultured in culture medium for 24 h and then in assay medium for another 24 h. Medium was then removed and replaced by assay medium containing the respective test compound or reference in defined concentrations.
Cytotoxicity was determined using the 3-(4,5-dimethylthiazol-2-yl)-2,5-diphenyltetrazoliumbromid (MTT) reduction assay (sse T. Mosmann (1983) J. Immunol. Methods. 65, pp. 55-63).

[3] = Experiment 1, Membrane 2, 300 µM
[4] = Experiment 1, Membrane 1, 1000 µM

Fold increase in sirt1 activity versus control (human sirtuin-1 (Sirt1)): 2.0
SMILES: COc1cc(/C=C/c2cccc(O)c2C(=O)O)cc(OC)c1O [(I-4)]

Fold increase in sirt1 activity versus control (human sirtuin-1 (Sirt1)): 4.8
SMILES: O=C(O)c1c(O)cccc1/C=C/c1ccc(O)cc1 [(I-2)]

Fold increase in sirt1 activity versus control (human sirtuin-1 (Sirt1)): 1.1
SMILES: COC(=O)c1c(/C=C/c2ccc(OC)cc2)cccc1OC [(I-3)]

remaining activity at 0.3 µM (human sirtuin-1 (Sirt1); Example 1(b), Table 2, 0.3 µM): 104% | remaining activity at 1 µM (human sirtuin-1 (Sirt1); Example 1(b), Table 2, 1.0 µM): 101% | remaining activity at 3 µM (human sirtuin-1 (Sirt1); Example 1(b), Table 2, 3.0 µM): 100% | remaining activity at 10 µM (human sirtuin-1 (Sirt1); Example 1(b), Table 2, 10.0 µM): 108% | remaining activity at 30 µM (human sirtuin-1 (Sirt1); Example 1(b), Table 2, 30.0 µM): 120% | EC300 (human sirtuin-1 (Sirt1); Example 1(b), concentration that gave 3-times the basal response of the enzyme): > 30 µM | remaining activity at 0.3 µM (human sirtuin-1 (Sirt1); Example 2, Table 3, 0.3 µM): 121% | remaining activity at 1 µM (human sirtuin-1 (Sirt1); Example 2, Table 3, 1.0 µM): 100% | remaining activity at 3 µM (human sirtuin-1 (Sirt1); Example 2, Table 3, 3.0 µM): 117% | remaining activity at 10 µM (human sirtuin-1 (Sirt1); Example 2, Table 3, 10.0 µM): 111% | remaining activity at 30 µM (human sirtuin-1 (Sirt1); Example 2, Table 3, 30.0 µM): 145% | EC300 (human sirtuin-1 (Sirt1); Example 2, Table 6, Sirt1): >30 µM | EC300 (Sirt2): >30 µM
SMILES: Oc1ccc(/C=C/c2cc(O)cc(O)c2)cc1 [trans-resveratrol]
AMPK phosphorylation [% Control] [1, 3]: 722 % Control | P-AMPK [1, 3]: 1616 AU/mm^2 | AMPK phosphorylation [% Control] ([1]; Experiment 2, 10 µM): 81 % Control | P-AMPK ([1]; Experiment 2, 10 µM): 228626 AU/mm^2 | AMPK phosphorylation [% Control] ([1]; Experiment 2, 30 µM): 86 % Control | P-AMPK ([1]; Experiment 2, 30 µM): 211794 AU/mm^2 | AMPK phosphorylation [% Control] ([1]; Experiment 2, 100 µM): 117 % Control | P-AMPK ([1]; Experiment 2, 100 µM): 327757 AU/mm^2 | AMPK phosphorylation [% Control] ([1]; Experiment 2, 200 µM): 816 % Control | P-AMPK ([1]; Experiment 2, 200 µM): 2361575 AU/mm^2 | AMPK phosphorylation [% Control] ([1]; Experiment 2, 300 µM): 21 % Control | P-AMPK ([1]; Experiment 2, 300 µM): 69290 AU/mm^2 | dosage needed for similar enhancement of AMPK phosphorylation ([1]; effect similar to compound (I-1) at 30 µM): at least 200 µM | viability ([2]; 100 µM): 2% | viability ([2]; 300 µM): 43% | concentrations with cytotoxic effects on NHEK ([2]; under assay conditions): ≥ 100 µM

SMILES: NC(=O)c1ncn([C@@H]2O[C@H](CO)[C@@H](O)[C@H]2O)c1N [AICAR, 5-Amino-1-ß-D-ribofuranosyl-imidazole-4-carboxamide]
AMPK phosphorylation [% Control] [1, 4]: 482 % Control | P-AMPK [1, 4]: 1060 AU/mm^2 | Ratio P-AMPK/ GAPDH [1, 4]: 2.05 | AMPK phosphorylation [% Control] ([1]; Experiment 2, 1000 µM): 506 % Control | P-AMPK ([1]; Experiment 2, 1000 µM): 1377449 AU/mm^2 | Ratio P-AMPK/ GAPDH ([1]; Experiment 2, 1000 µM): 0.572

Fold increase in sirt1 activity versus control (human sirtuin-1 (Sirt1)): 2.7
SMILES: CC(=O)c1c(O)cccc1/C=C/c1ccc(OC2OC(CO)C(O)C(O)C2O)cc1 (stereo not drawn) [(I-5)]
